Measurements reported in patent publication US20050112573A1, “Method of detecting toxic substance” (priority 2001, published 2005).

Experiments:
Format in all cases: cell-based, Saccharomyces cerevisiae W303
[1] = tested on: promoter of yeast gene YCR102c; conditions: cells SC-YCR102C-pQBI, 2 hours incubation with the substance at the concentration printed in its row (column Concentrations); GFP fluorescence vs control without chemical
Excerpt: (§1) The inventors of the present application understood that the induction of certain yeast genes by toxic substances is caused by the activation of the promoters of the genes by the toxic substances. Thus, the inventors prepared a vector that comprised a polynucleotide sequence comprising the promoter of the yeast gene, which sequence is operably linked to a polynucleotide encoding a marker protein; and transformed yeast cells with the vector. […] The working examples hereinafter illustrate the preparation of such vectors, transformation of yeast cells by use of said vectors, and the detection of toxic substances by use of the transformed cells.
(§2) Promoter assay is a method for determining variations of the level of intracellular genes without destroying cells on the basis of the level of expressed marker genes instead of the expressed mRNA. The gene selected to detect a chemical substance is expressed in the absence of chemical substances, and thus a marker protein also occurs in the absence of chemical substances. In the method according to the present invention, the behavior of yeast genes on the addition of test materials is determined on the basis of the level of expressed marker protein so that the presence or the absence, and the kind of toxic chemical substances are predicted. Thus, it is desired that the production of marker proteins is lower in the absence of chemical substances, and the production of marker proteins is higher in the presence of chemical substances.
(§3) Type YEp shuttle vector pYES2 (pYES2, Cat no: V825-20, Invirtogen Corporation, USA), which can be replicated both in E. coli. and yeast was used as vector (R. W. Old, S. B. Primrose Principles of Gene Manipulation 5th Ed., BAIFUKAN CO., LTD, pp138-165, pp.234-263, 2000). The portion of vector PQBI 63 (Cat no.54-0082, Wako Pure Chemical Industries, Ltd.) corresponding to a marker protein GFP was used as the polynucleotide encoding GFP (SEQ ID No: 6). First, the GFP polynucleotide was inserted into the multiple cloning sites of pYES2 to give a vector. Thereafter, the GALL promoter of pYES2 was replaced with the polynucleotide comprising the promoter sequence of the intended yeast gene YCR102c (SEQ ID No: 2) to give an intended plasmid vector. Suitable restriction enzymes were selected, and the insertion of the polynucleotide comprising GFP and the promoter sequence was conducted.
(§4) Next, the yeast Saccharomyces cerevisiae W303 was transformed with the resultant plasmid vector according to the following procedures: • 1) Incubating the yeast Saccharomyces cerevisiae W303 in 200 ml of SD medium under shaking until OD 660 reaches 0.5; • 2) Suspending the collected cells in 5 ml of TE-buffer; • 3) Adding 250 μL of 2.5M lithium acetate; • 4) Dispending each 300 μl, adding 10 μl of above plasmid vector thereto, then incubating the suspensions at 30° C. for 30 minutes; • 5) Adding 700 μl of 50% PEG4000, and incubating the mixture under shaking at 30° C. for 60 minutes; • 6) Giving heat shock (42° C., 5 minutes), and then immediately cooling the mixture; • 7) Washing the mixture twice with 1M sorbitol; and • 8) Seeding it on agar plates made of minimum essential medium.
(§5) The cells of SC-YCR102C-pQBI as prepared in Example 3 were contacted to one of the following compounds. The yeast cells SC-YCR102C-pQBI were incubated at 25° C. in SD medium (Yeast nitrogen base without amino acids (Difco 0919-15)+glucose+amino acids (adenine, histidine, tryptophan)). One of toxic chemical substances as shown below was added to the cells at logarithmic growth phase, and then the cells were further incubated for two hours.

[2] = tested on: promoter of yeast gene YOR382w; conditions: for Fluorescence: cells SC-YOR382W-pQBI, 2 hours incubation with the substance at the concentration printed in its row (column Concentrations), GFP fluorescence vs control without chemical
Excerpt: as §1, §2
as §3, with “pQBI” for “PQBI”, “GAL1” for “GALL”, “YOR382w” for “YCR102c”, “3)” for “2)”
as §4
as §5, with “SC-YOR382W-pQBI” for “SC-YCR102C-pQBI”, “4” for “3”

[3] = tested on: promoter of yeast gene YLR303w; conditions: cells SC-YCR303W-pQBI (so in the source), 2 hours incubation with the substance at the concentration printed in its row (column Concentrations); GFP fluorescence vs control without chemical
Excerpt: as §1, §2
as §3, with “pQBI” for “PQBI”, “GAL1” for “GALL”, “YLR303w” for “YCR102c”, “5)” for “2)”
as §4
as §5, with “SC-YCR303W-pQBI” for “SC-YCR102C-pQBI”, “6” for “3”

| SMILES | Fluorescence [1] | expression of GFP ([2]; SC-YOR382W-pQBI cells, summary of Table 12) | Fluorescence [2] | Fluorescence [3] |
| --- | --- | --- | --- | --- |
| CCOC(=O)CC(SP(=S)(OC)OC)C(=O)OCC (stereo not shown) [malathon] | − (the number of the cells having a higher fluorescence than the control was under 1%) | induced the expression of GFP | ++ (2% or more) | − (the number of the cells having a higher fluorescence than the control was under 1%) |
| [Cl][Sn]([c]1ccccc1)([c]1ccccc1)[c]1ccccc1 [triphenyltin chloride] | − (the number of the cells having a higher fluorescence than the control was under 1%) | – | − (the number of the cells having a higher fluorescence than the control was under 1%) | − (the number of the cells having a higher fluorescence than the control was under 1%) |
